Like-named read-outs stand apart in the source and are kept apart here.

What is called GI50 is the concentration at which growth is held to half of that of the control.

The test system of test [1] is BCF-7 breast cancer cells. Kind of test: preliminary growth inhibition assay on BCF-7 breast cancer cells. The format is cell-based.
Test [2] deals with CCRF-CEM leukemia cell line. Kind of test: NCI in vitro 60 cell line human tumor screen, CCRF-CEM. The format is cell-based. As to conditions: NCI 60 cell line screen.
In test [3] the test system is SR leukemia cell line. As to the kind of experiment: NCI in vitro 60 cell line human tumor screen, SR. The format is cell-based. Particulars: NCI 60 cell line screen.
Test [4] has as its system NCI 60 human tumor cell lines, including breast cancer and ovarian cancer cell lines. As to the kind of experiment: NCI in vitro 60 cell line human tumor screen, cell line panel. The format is cell-based.
The test system of test [5] is CCRF-CEM leukemia cell line. As to conditions: comparison value for paclitaxel; cited from earlier work.
Test [6] deals with SR leukemia cell line. As to conditions: comparison value for paclitaxel; cited from earlier work.

For the compound `CC1=C(c2ccccc2)C[C@H]2/C=C(/C)CCC[C@H](C)[C@H](O)[C@@H](C)C(=O)C(C)(C)[C@@H](O)CC(=O)O[C@H]12` [Compound 1a], in test [1], the growth inhibition entry is given as “no activity”. Take `CC1=C(c2ccc(C)cn2)C[C@H]2/C=C(/C)CCC[C@H](C)[C@H](O)[C@@H](C)C(=O)C(C)(C)[C@@H](O)CC(=O)O[C@H]12` [Compound 1b, (3S,6R,7S,8S,1′S,5′S)-7,11-Dihydroxy-3,8,8,10,12,16-hexamethyl-2-(5-methyl-pyridin-2-yl)-3a,7,8,10,11,12,13,14,15,17a-decahydro-1H,6H-4-oxa-cyclopentacyclohexadecene-5,9-dione]: the GI50 in test [2] is 2.7 nM; in the test on SR leukemia cell line [3], 2.9 nM. Besides, the “growth inhibitory activity on the other NCI 60 cell lines” value in test [4] (all lines other than CCRF-CEM and SR, including breast cancer and ovarian cancer cell lines) is given as “no significant activity”. For the compound `C=C(C)CCC[C@H](C)[C@H](O)[C@@H](C)C(=O)C(C)(C)[C@@H](O)CC(=O)O[C@@H]1C(C)=C(c2ccc(C)cn2)C[C@H]1/C=C/c1ccccc1` [Compound 35, 3,7-Dihydroxy-4,4,6,8,12-pentamethyl-5-oxo-tridec-12-enoic acid 2-methyl-3-(5-methyl-pyridin-2-yl)-5-styryl-cyclopent-2-enyl ester], the “activity in the NCI 60 cell line assay” value in test [4] (any of the cell lines) is recorded as “no significant activity”. In the case of `CC(=O)O[C@H]1C(=O)[C@@]2(C)[C@H]([C@H](OC(=O)c3ccccc3)[C@]3(O)C[C@H](OC(=O)[C@H](O)[C@@H](NC(=O)c4ccccc4)c4ccccc4)C(C)=C1C3(C)C)[C@]1(OC(C)=O)CO[C@@H]1C[C@@H]2O` [paclitaxel], the GI50 in test [5] is 12.6 nM; in the test with SR leukemia cell line [6] it was 15.8 nM.

Source of the values: patent publication US8435983B2, “Conformationally restrained epothilone analogues as anti-leukemic agents” (The University of Toledo, priority 2007, dated 2013).
